In patent US9988400B2 (Genentech, Inc., priority 2013, dated 2018):

Molecular target: T1, HEK cells stably transfected with tetracycline inducible hNR1 and hNR2A (Homo sapiens, UniProt Q05586+Q12879)
T1 construct: expressed in transfected cells; host or cells: HEK cells, stably transfected, tetracycline/doxycycline inducible
Experiment: Assay 1: Cell-Based Assay, cytosolic calcium response to positive allosteric modulators (with 30 μM glycine and 300 nM L-glutamate, EC30)
Settings: for EC50: cytosolic calcium response, with 30 μM glycine and 300 nM L-glutamate (EC30), — = no plateau was reached; for Max %: responses scaled relative to 100 μM L-glutamate maximal response (100%) and 0 μM L-glutamate (0%)
Procedure: Assay 1: Cell-Based Assay
HEK cells stably transfected with tetracycline inducible hNR1 and hNR2A were seeded into clear bottom 384 well poly-D-lysine coated plates (2.5×10^4 cells per well) in Minimum Essential Media (MEM; without L-) including 7.5 μg mL^−1 doxycycline and 500 μM (+)-ketamine. The cells were incubated at 37° C. in 5% CO2 for 24 h. For measurement of changes in cytosolic calcium, the seeding media was removed and the cells incubated at 37° C. for 60 min with 1× Becton Dickinson Calcium Assay Kit reagent in Hanks Balanced Salt Solution (HBSS; w/o magnesium, including 1.8 mM calcium, 0.65 mg ml^−1 probenecid and 10 μM (+)-ketamine, pH 7.15) then allowed to equilibrate to rt for 30 min. Concentration-effect curves to Positive Allosteric Modulators (PAMs) were constructed by adding different concentrations (with 30 μM glycine and 300 nM L-glutamate (EC30)) to different wells in HBSS. Compounds were added after a 10 second baseline read and maximum level of relative fluorescence units (RFU) was measured over a 5 min period. Responses were scaled relative to 100 μM L-glutamate maximal response (100%) and 0 μM L-glutamate (0%). EC50 values are provided for compounds reaching maximal response plateaus, and the max % (EC50 (- -)) only if no plateau was reached.
A four-parameter Hill equation was fitted to individual concentration-effect curves:
[formula] in which Y, S0, Sinf, AC50, n and c were effect, lower-asymptote, upper-asymptote, mid-point location, slope parameter, and concentration respectively.

T1 sequence (Q12879 23-1464, other chains not shown): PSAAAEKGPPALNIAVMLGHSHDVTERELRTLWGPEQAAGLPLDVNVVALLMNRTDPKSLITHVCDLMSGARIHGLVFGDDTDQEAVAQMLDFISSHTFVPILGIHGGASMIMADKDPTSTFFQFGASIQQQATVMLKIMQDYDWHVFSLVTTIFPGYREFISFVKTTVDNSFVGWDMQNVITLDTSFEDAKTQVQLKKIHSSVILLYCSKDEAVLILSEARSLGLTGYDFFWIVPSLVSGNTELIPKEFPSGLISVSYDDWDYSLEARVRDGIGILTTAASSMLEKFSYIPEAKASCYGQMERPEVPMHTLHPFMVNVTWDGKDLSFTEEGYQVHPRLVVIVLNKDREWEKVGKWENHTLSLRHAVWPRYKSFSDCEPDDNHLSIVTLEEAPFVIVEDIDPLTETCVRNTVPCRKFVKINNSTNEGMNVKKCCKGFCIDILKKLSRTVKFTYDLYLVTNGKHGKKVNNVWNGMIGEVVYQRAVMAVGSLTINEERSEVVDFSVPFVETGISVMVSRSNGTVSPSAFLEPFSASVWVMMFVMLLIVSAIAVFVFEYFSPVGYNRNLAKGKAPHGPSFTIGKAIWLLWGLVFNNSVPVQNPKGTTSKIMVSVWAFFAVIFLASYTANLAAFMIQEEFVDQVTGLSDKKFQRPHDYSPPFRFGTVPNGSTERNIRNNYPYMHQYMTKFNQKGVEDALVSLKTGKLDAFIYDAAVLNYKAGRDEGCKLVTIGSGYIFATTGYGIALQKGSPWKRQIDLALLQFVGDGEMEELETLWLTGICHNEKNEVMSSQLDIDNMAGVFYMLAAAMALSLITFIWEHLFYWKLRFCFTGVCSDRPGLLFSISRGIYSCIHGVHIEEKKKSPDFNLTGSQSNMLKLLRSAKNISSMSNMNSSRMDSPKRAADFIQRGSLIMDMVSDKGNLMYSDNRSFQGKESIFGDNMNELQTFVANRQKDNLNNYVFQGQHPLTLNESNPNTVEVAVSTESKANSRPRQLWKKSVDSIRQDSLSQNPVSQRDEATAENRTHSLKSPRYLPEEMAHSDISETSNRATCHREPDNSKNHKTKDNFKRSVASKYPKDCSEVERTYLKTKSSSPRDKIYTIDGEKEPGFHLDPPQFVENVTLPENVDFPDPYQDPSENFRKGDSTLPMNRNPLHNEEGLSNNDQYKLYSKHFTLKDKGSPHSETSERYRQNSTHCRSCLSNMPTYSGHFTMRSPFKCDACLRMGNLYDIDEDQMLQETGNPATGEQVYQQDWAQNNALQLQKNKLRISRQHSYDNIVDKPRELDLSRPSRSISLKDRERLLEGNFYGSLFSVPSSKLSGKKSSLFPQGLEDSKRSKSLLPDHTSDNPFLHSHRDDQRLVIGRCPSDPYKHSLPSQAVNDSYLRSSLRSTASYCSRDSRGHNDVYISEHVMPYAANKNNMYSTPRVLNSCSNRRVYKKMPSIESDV

SMILES	EC50 (Table 2)	Max % (Table 2)	EC50 (Table 3)
Cc1sc2nc(COc3ccc(F)cc3)cc(=O)n2c1C1CC1CO (single isomer, unassigned) [Example 4.1, 7-(4-Fluorophenoxymethyl)-3-[trans-2-(hydroxymethyl)cyclopropyl]-2-methyl-5H-[1,3]thiazolo[3,2-a]pyrimidin-5-one]	5100 nM	141%	–
Cc1sc2nc(COc3ccc(F)cc3)cc(=O)n2c1C1CC1CO (single isomer, unassigned) [Example 4.2, 7-(4-Fluorophenoxymethyl)-3-[trans-2-(hydroxymethyl)cyclopropyl]-2-methyl-5H-[1,3]thiazolo[3,2-a]pyrimidin-5-one]	1300 nM	137%	–
Cc1sc2nc(COc3ccc(F)cc3)cc(=O)n2c1C1CC1CO (single isomer, unassigned) [Example 4.3, 7-(4-Fluorophenoxymethyl)-3-[trans-2-(hydroxymethyl)cyclopropyl]-2-methyl-5H-[1,3]thiazolo[3,2-a]pyrimidin-5-one]	20500 nM	71.6%	–
Cc1sc2nc(COc3ccc(F)cc3)cc(=O)n2c1C1CC1C#N (single isomer, unassigned) [Example 4.19, cis-2-[7-(4-Fluorophenoxymethyl)-2-methyl-5-oxo-5H-[1,3]thiazolo[3,2-a]pyrimidin-3-yl]cyclopropane-1-carbonitrile]	9000 nM	46.9%	–
Cc1sc2nc(COc3ccc(F)cc3)cc(=O)n2c1C1CC1C#N (single isomer, unassigned) [Example 4.20, cis-2-[7-(4-Fluorophenoxymethyl)-2-methyl-5-oxo-5H-[1,3]thiazolo[3,2-a]pyrimidin-3-yl]cyclopropane-1-carbonitrile]	2400 nM	93.9%	–
Cc1sc2nc(COc3ccc(F)cc3)cc(=O)n2c1[C@@H]1C[C@H]1C#N (single isomer, unassigned) [Example 4.21, trans-2-[7-(4-Fluorophenoxymethyl)-2-methyl-5-oxo-5H-[1,3]thiazolo[3,2-a]pyrimidin-3-yl]cyclopropane-1-carbonitrile]	16300 nM	47.4%	–
Cc1sc2nc(COc3ccc(F)cc3)cc(=O)n2c1[C@@H]1C[C@H]1C#N (single isomer, unassigned) [Example 4.22, trans-2-[7-(4-Fluorophenoxymethyl)-2-methyl-5-oxo-5H-[1,3]thiazolo[3,2-a]pyrimidin-3-yl]cyclopropane-1-carbonitrile]	–	84.2%	–
CCN(Cc1cc(=O)n2c(C3CC3CO)c(C)sc2n1)c1ccc(F)cc1 (single isomer, unassigned) [Example 5.18, 7-((ethyl(4-fluorophenyl)amino)methyl)-3-(trans-2-(hydroxymethyl)cyclopropyl)-2-methyl-5H-thiazolo[3,2-a] pyrimidin-5-one]	91 nM	164%	–
CCN(Cc1cc(=O)n2c(C3CC3CO)c(C)sc2n1)c1ccc(F)cc1 (single isomer, unassigned) [Example 5.19, 7-((ethyl(4-fluorophenyl)amino)methyl)-3-(trans-2-(hydroxymethyl)cyclopropyl)-2-methyl-5H-thiazolo[3,2-a] pyrimidin-5-one]	1700 nM	141%	–
Cc1sc2nc(CN(CCF)c3ccc(F)cc3)cc(=O)n2c1C1CC1CO (single isomer, unassigned) [Example 5.42, 7-[[4-fluoro-N-(2-fluoroethyl)anilino]methyl]-3-trans-2-(hydroxymethyl)cyclopropyl]-2-methyl-thiazolo[3,2-a]pyrimidin-5-one]	32.9 nM	162%	–
Cc1sc2nc(CN(CCF)c3ccc(F)cc3)cc(=O)n2c1[C@@H]1C[C@H]1CO (single isomer, unassigned) [Example 5.43, 7-[[4-fluoro-N-(2-fluoroethyl)anilino]methyl]-3-[trans-2-(hydroxymethyl)cyclopropyl]-2-methyl-thiazolo[3,2-a]pyrimidin-5-one]	821 nM	145%	–
CCN(Cc1cc(=O)n2c3c(sc2n1)CCC3CO)c1ccc(F)cc1 (single isomer, unassigned) [Example 8.3, 6-[(N-ethyl-4-fluoro-anilino)methyl]-1-(hydroxymethyl)-2,3-dihydro-1H-cyclopenta[3,4]thiazolo[1,4-a]pyrimidin-8-one]	1300 nM	150%	–
CCN(Cc1cc(=O)n2c3c(sc2n1)CCC3CO)c1ccc(F)cc1 (single isomer, unassigned) [Example 8.4, 6-[(N-ethyl-4-fluoro-anilino)methyl]-1-(hydroxymethyl)-2,3-dihydro-1H-cyclopenta[3,4]thiazolo[1,4-a]pyrimidin-8-one]	569 nM	164%	–
CCN(Cc1cc(=O)n2c(C(O)CCO)c(C)sc2n1)c1ccc(F)cc1 (single isomer, unassigned) [Example 12.3, 3-(1,3-dihydroxypropyl)-7-[(N-ethyl-4-fluoro-anilino)methyl]-2-methyl-thiazolo[3,2-a]pyrimidin-5-one]	1600 nM	183%	–
CCN(Cc1cc(=O)n2c(C(O)CCO)c(C)sc2n1)c1ccc(F)cc1 (single isomer, unassigned) [Example 12.4, 3-(1,3-dihydroxypropyl)-7-[(N-ethyl-4-fluoro-anilino)methyl]-2-methyl-thiazolo[3,2-a]pyrimidin-5-one]	591 nM	176%	–
Cc1sc2nc(Cn3nc(C(F)(F)F)cc3Cl)cc(=O)n2c1C1CC1C#N (single isomer, unassigned) [compound 125]	–	–	27.8 nM
Cc1sc2nc(Cn3nc(C(F)(F)F)cc3Cl)cc(=O)n2c1[C@@H]1C[C@@H]1C#N (single isomer, unassigned) [compound 126]	–	–	249 nM
Cc1sc2nc(Cn3nc(C(F)(F)F)cc3Cl)cc(=O)n2c1C1CC1CO (single isomer, unassigned) [compound 136]	–	–	39.1 nM
Cc1sc2nc(Cn3nc(C(F)(F)F)cc3Cl)cc(=O)n2c1C1CC1CO (single isomer, unassigned) [compound 137]	–	–	420 nM

The next lines start with the values.

EC50 (Table 2)	Max % (Table 2)	EC50 (Table 3)	SMILES
13900 nM	133%	–	Cc1sc2nc(Cc3ccc(F)c(C#N)c3)cc(=O)n2c1[C@@H]1C[C@H]1CO (relative stereo) [Example 20.9, 2-fluoro-5-((3-(trans-2-(hydroxymethyl)cyclopropyl)-2-methyl-5-oxo-5H-thiazolo[3,2-a]pyrimidin-7-yl)methyl)benzonitrile]
9100 nM	127%	–	COc1ccc(C#N)cc1Cc1cc(=O)n2c([C@@H]3C[C@H]3CO)c(C)sc2n1 (relative stereo) [Example 20.10, 3-[[3-[trans-2-(hydroxymethyl)cyclopropyl]-2-methyl-5-oxo-thiazolo[3,2-a]pyrimidin-7-yl]methyl]-4-methoxy-benzonitrile]
–	74%	–	Cc1sc2nc(Cc3ccnc(C#N)c3)cc(=O)n2c1[C@@H]1C[C@H]1CO (relative stereo) [Example 20.12, 4-((3-(trans-2-(hydroxymethyl)cyclopropyl)-2-methyl-5-oxo-5H-thiazolo[3,2-a]pyrimidin-7-yl)methyl)picolinonitrile]
5800 nM	146%	–	Cc1sc2nc(Cc3cc(C#N)ccc3C3CC3)cc(=O)n2c1[C@@H]1C[C@H]1CO (relative stereo) [Example 20.13, 4-cyclopropyl-3-((3-(trans-2-(hydroxymethyl)cyclopropyl)-2-methyl-5-oxo-5H-thiazolo[3,2-a]pyrimidin-7-yl)methyl)benzonitrile]
–	67.6%	–	Cc1cc(C2CC2)n(Cc2cc(=O)n3c([C@@H]4C[C@H]4CO)c(C)sc3n2)n1 (single isomer, unassigned) [Example 15.13, 7-[(5-cyclopropyl-3-methyl-pyrazol-1-yl)methyl]-3-[2-(hydroxymethyl)cyclopropyl]-2-methyl-thiazolo[3,2-a]pyrimidin-5-one]
3100 nM	159%	–	Cc1cc(C2CC2)n(Cc2cc(=O)n3c([C@@H]4C[C@H]4CO)c(C)sc3n2)n1 (single isomer, unassigned) [Example 15.14, 7-[(5-cyclopropyl-3-methyl-pyrazol-1-yl)methyl]-3-[2-(hydroxymethyl)cyclopropyl]-2-methyl-thiazolo[3,2-a]pyrimidin-5-one]
–	61.9%	–	Cc1sc2nc(Cn3nc(C4CC4)cc3C)cc(=O)n2c1[C@@H]1C[C@H]1CO (single isomer, unassigned) [Example 15.15, 7-[(3-cyclopropyl-5-methyl-pyrazol-1-yl)methyl]-3-[2-(hydroxymethyl)cyclopropyl]-2-methyl-thiazolo[3,2-a]pyrimidin-5-one]
17700 nM	115%	–	Cc1sc2nc(Cn3nc(C4CC4)cc3C)cc(=O)n2c1C1CC1CO (single isomer, unassigned) [Example 15.16, 7-[(3-cyclopropyl-5-methyl-pyrazol-1-yl)methyl]-3-[2-(hydroxymethyl)cyclopropyl]-2-methyl-thiazolo[3,2-a]pyrimidin-5-one]
